# From patent US20230286995A1, “METABOLICALLY STABLE PYRIMIDINYL DIHYDROQUINOXALINONES AS TUBULIN POLYMERIZATION INHIBITORS” (UNIVERSITY OF TENNESSEE RESEARCH FOUNDATION, priority 2022, published 2023)
# Where two headings read alike, the source gives them in different places.
# What was measured:
# Mia PaCa-2 = assay: Cytotoxicity assay (MTS, 72 h); type: cell-based; details: Homo sapiens
# MDA-MB-453 = assay: Cytotoxicity assay (MTS, 72 h); type: cell-based, human
# M14 = assay: Cytotoxicity assay (MTS, 72 h); details: Homo sapiens
# A375 = assay: Cytotoxicity assay (MTS, 72 h);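 further: compounds tested from 0.1 nM up to 3 µM in four replicate wells, with absorbance read at 490 nm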
# PANC-1 = assay: Cytotoxicity assay (MTS, 72 h); type: cell-based; details: Homo sapiens
# Procedure: Mia PaCa-2 and PANC-1 cells were seeded in 96-well plates at 4000 and 5000 cells per well, respectively.
# Cytotoxicity Assay. […] Each experiment consisted of four replicates.
# MDA-MB-231 = assay: Cytotoxicity assay (MTS, 72 h); type: cell-based; details: Homo sapiens
# MDA-MB-468 = assay: Cytotoxicity assay (MTS, 72 h); type: cell-based, human; details: Table 1, read-out: IC50 (nM) Breast MDA-MB-468
# logP = type: physicochemical; details: Table 1; method not described
# RPMI-7951 = assay: Cytotoxicity assay (MTS, 72 h); type: cell-based; details: Homo sapiens, Table 1, read-out: IC50 (nM) Melanoma RPMI-7951
# [1] = Table 6, read-out: IC50 (nM) Pancreatic cancer Mia PaCa-2
# [2] = Homo sapiens, MDA-MB-453, Table 6, read-out: IC50 (nM) Breast Cancer MDA-MB-453
# [3] = M14, read-out: IC50 (nM) Melanoma Cancer M14
# [4] = Homo sapiens, A-375, read-out: IC50 (nM) Melanoma Cancer A375, Table 6
# [5] = read-out: IC50 (nM) Melanoma Cancer A375, Table 6
# [6] = Table 6, read-out: IC50 (nM) Pancreatic cancer PANC-1
# [7] = MDA-MB-231, read-out: IC50 (nM) Breast Cancer MDA-MB-231, Table 6
# [8] = Table 6, cells printed in μM, read-out: IC50 Pancreatic cancer Mia PaCa-2
# [9] = Table 6, cells printed in μM, read-out: IC50 Pancreatic cancer PANC-1
# [10] = Homo sapiens, MDA-MB-453, Table 6, cells printed in μM, read-out: IC50 Breast Cancer MDA-MB-453
# [11] = M14, read-out: IC50 Melanoma Cancer M14
# [12] = Homo sapiens, A-375, read-out: IC50 Melanoma Cancer A375, Table 6, cells printed in μM
# [13] = MDA-MB-231, read-out: IC50 Breast Cancer MDA-MB-231, Table 6, cells printed in μM
# [14] = Table 1, read-out: IC50 (nM) Breast MDA-MB-453
# [15] = M14, read-out: IC50 (nM) Melanoma M14
# [16] = Homo sapiens, A-375, read-out: IC50 (nM) Melanoma A375, Table 1
# [17] = MDA-MB-231, read-out: IC50 (nM) Breast MDA-MB-231, Table 1
# [18] = Homo sapiens, MDA-MB-453, Table 1, read-out: IC50 (nM) Breast MDA-MB-453
smiles,measurement,setting,value
"COc1ccc2c(c1)NC(=O)CN2c1nc(N2CCCC2)nc2c1CCC2 [Compound 12g, 7-methoxy-4-(2-(pyrrolidin-1-yl)-6,7-dihydro-5H-cyclopenta[d]pyrimidin-4-yl)-3,4-dihydroquinoxalin-2(1H)-one]",IC50,Mia PaCa-2; [1],508 ± 59.1 nM
same,IC50,MDA-MB-453; [2],98.1 ± 23.3 nM
same,IC50,M14; [3],84.7 ± 17.6 nM
same,IC50,A375; [4],~82.1 nM
same,IC50,A375; [5],82.2 ± 12.9 nM
same,IC50,PANC-1; [6],213 ± 47.6 nM
same,IC50,MDA-MB-231; [7],119 ± 20.5 nM
"COc1ccc2c(c1)NC(=O)CN2c1nc(N2CCCCC2)nc2c1CCC2 [Compound 12f, 7-methoxy-4-(2-(piperidin-1-yl)-6,7-dihydro-5H-cyclopenta[d]pyrimidin-4-yl)-3,4-dihydroquinoxalin-2(1H)-one]",IC50,Mia PaCa-2; [8],> 1250 nM
same,IC50,MDA-MB-453; [2],499 ± 126 nM
same,IC50,M14; [3],601 ± 117 nM
same,IC50,A375; [4],~436 nM
same,IC50,PANC-1; [9],> 1250 nM
same,IC50,MDA-MB-231; [7],690 ± 147 nM
"COc1ccc2c(c1)NC(=O)CN2c1nc(N(C)C)nc2c1CCC2 [Compound 12i, 4-(2-(dimethylamino)-6,7-dihydro-5H-cyclopenta[d]pyrimidin-4-yl)-7-methoxy-3,4-dihydroquinoxalin-2(1H)-one]",IC50,Mia PaCa-2; [8],> 1250 nM
same,IC50,MDA-MB-453; [2],16.1 ± 4.7 nM
same,IC50,M14; [3],21.1 ± 4.1 nM
same,IC50,A375; [4],~22.6 nM
same,IC50,A375; [5],22 ± 4.5 nM
same,IC50,PANC-1; [9],> 1250 nM
same,IC50,MDA-MB-231; [7],36.9 ± 6.1 nM
"COc1ccc2c(c1)nc(-c1ccc(OC)c(OC)c1OC)n2-c1nc(SC)nc2c1CCC2 [Compound 19, 5-methoxy-1-(2-(methylthio)-6,7-dihydro-5H-cyclopenta[d]pyrimidin-4-yl)-2-(2,3,4-trimethoxyphenyl)-1H-benzo[d]imidazole]",IC50,"Mia PaCa-2; Table 6, cell printed in MM, read-out: IC50 Pancreatic cancer Mia PaCa-2",> 1250 nM
same,IC50,MDA-MB-453; [10],> 3000 nM
same,IC50,M14; [11],> 3000 nM
same,IC50,A375; [12],> 3000 nM
same,IC50,PANC-1; [9],> 1250 nM
same,IC50,MDA-MB-231; [13],> 3000 nM
"COc1ccc2c(c1)NC(=O)CN2c1nc(N2CCN(C)CC2)nc2c1CCC2 [Compound 12d, 7-methoxy-4-(2-(4-methylpiperazin-1-yl)-6,7-dihydro-5H-cyclopenta[d]pyrimidin-4-yl)-3,4-dihydroquinoxalin-2(1H)-one]",IC50,Mia PaCa-2; [8],> 1250 nM
same,IC50,MDA-MB-453; [2],416 ± 107 nM
same,IC50,M14; [3],574 ± 124 nM
same,IC50,A375; [4],~543 nM
same,IC50,PANC-1; [9],> 1250 nM
same,IC50,MDA-MB-231; [7],1860 ± 650 nM
"COc1ccc2c(c1)NC(=O)CN2c1nc(S(C)(=O)=O)nc2c1CCC2 [Compound 11, 7-methoxy-4-(2-(methylsulfonyl)-6,7-dihydro-5H-cyclopenta[d]pyrimidin-4-yl)-3,4-dihydroquinoxalin-2(1H) one]",IC50,Mia PaCa-2; [8],> 1250 nM
same,IC50,MDA-MB-453; [2],58.8 ± 16.3 nM
same,IC50,M14; [3],62.2 ± 10.8 nM
same,IC50,A375; [4],~84.9 nM
same,IC50,PANC-1; [9],> 1250 nM
same,IC50,MDA-MB-231; [7],191 ± 32 nM
"COc1ccc2c(c1)NC(=O)CN2c1nc(C)nc(C)c1C [Compound 5r, 7-methoxy-4-(2,5,6-trimethylpyrimidin-4-yl)-3,4-dihydroquinoxalin-2(1H)-one]",IC50,MDA-MB-453; [14],4.3 ± 0.9 nM
same,IC50,M14; [15],9.8 ± 1.7 nM
same,IC50,A375; [16],9 ± 1 nM
same,IC50,MDA-MB-231; [17],18 ± 2.7 nM
same,IC50,MDA-MB-468,5.2 ± 2.2 nM
same,logP,logP,2.97
same,IC50,RPMI-7951,8.9 ± 1.5 nM
"COc1ccc2c(c1)NC(=O)CN2c1nc(Cl)nc2c1CCCC2 [Compound 5o, 4-(2-chloro-5,6,7,8-tetrahydroquinazolin-4-yl)-7-methoxy-3,4-dihydroquinoxalin-2(1H)-one]",IC50,MDA-MB-453; [14],256 ± 59.5 nM
same,IC50,M14; [15],> 1000 nM
same,IC50,A375; [16],> 1000 nM
same,IC50,MDA-MB-231; [17],> 1000 nM
same,IC50,"MDA-MB-468; Homo sapiens, MDA-MB-468",> 1000 nM
same,logP,logP,3.16
same,IC50,RPMI-7951,> 1000 nM
"COc1ccc2c(c1)NC(=O)CN2c1nc(O)nc2c1CCC2 [Compound 12a, 4-(2-hydroxy-6,7-dihydro-5H-cyclopenta[d]pyrimidin-4-yl)-7-methoxy-3,4-dihydroquinoxalin-2(1H)-one]",IC50,Mia PaCa-2; [8],> 1250 nM
same,IC50,MDA-MB-453; [2],688 ± 186 nM
same,IC50,M14; [3],662 ± 126 nM
same,IC50,A375; [4],~646 nM
same,IC50,PANC-1; [9],> 1250 nM
same,IC50,MDA-MB-231; [7],1200 ± 346 nM
"COc1ccc2c(c1)[nH]c(=O)c(=O)n2-c1nc(SC)nc2c1CCC2 [Compound 14, 6-methoxy-1-(2-(methylthio)-6,7-dihydro-5H-cyclopenta[d]pyrimidin-4-yl)quinoxaline-2,3(1H,4H)-dione]",IC50,A375; [12],> 3000 nM
"COc1ccc2c(c1)NC(=O)CN2c1ncnc2c1CCC2 [Compound 5n, 4-(6,7-dihydro-5H-cyclopenta[d]pyrimidin-4-yl)-7-methoxy-3,4-dihydroquinoxalin-2(1H)-one]",IC50,MDA-MB-453; [18],7.3 ± 1.5 nM
same,IC50,M14; [15],19.1 ± 5.3 nM
same,IC50,A375; [16],13.4 ± 1.9 nM
same,IC50,MDA-MB-231; [17],54 ± 9.9 nM
same,IC50,"MDA-MB-468; Homo sapiens, MDA-MB-468",15.6 ± 3.8 nM
same,logP,logP,2.05
same,IC50,RPMI-7951,14 ± 3.9 nM
"Cc1nc2c(c(N3CC(=O)Nc4cc(O)ccc43)n1)CCC2 [Compound 12q, 7-hydroxy-4-(2-methyl-6,7-dihydro-5H-cyclopenta[d]pyrimidin-4-yl)-3,4-dihydroquinoxalin-2(1H)-one]",IC50,Mia PaCa-2; [1],34.3 ± 5.3 nM
same,IC50,MDA-MB-453; [2],13.5 ± 3.3 nM
same,IC50,M14; [3],21.8 ± 4.5 nM
same,IC50,A375; [4],~19 nM
same,IC50,MDA-MB-231; [7],25.9 ± 4.9 nM
"Cc1nc2c(c(-n3c(=O)[nH]c4cc(OC(F)(F)F)ccc43)n1)CCC2 [Compound 18a, 1-(2-methyl-6,7-dihydro-5H-cyclopenta[d]pyrimidin-4-yl)-5-(trifluoromethoxy)-1H-benzo[d]imidazol-2-one]",IC50,Mia PaCa-2; [1],667 ± 652 nM
same,IC50,M14; [3],1080 ± 682 nM
same,IC50,A375; [4],238 ± 126 nM
same,IC50,PANC-1; [6],164 ± 98.2 nM
same,IC50,MDA-MB-231; [7],919 ± 722 nM
"COc1ccc2c(c1)[nH]c(=O)c(=O)n2-c1nc(S(C)(=O)=O)nc2c1CCC2 [Compound 15, 6-methoxy-1-(2-(methylsulfone)-6,7-dihydro-5H-cyclopenta[d]pyrimidin-4-yl)quinoxaline-2,3(1H,4H)-dione]",IC50,MDA-MB-453; [10],> 3000 nM
same,IC50,M14; [11],> 3000 nM
same,IC50,A375; [12],> 3000 nM
same,IC50,MDA-MB-231; [13],> 3000 nM
"COc1cc2c(cc1F)N(c1nc(Cl)nc3cccnc13)CC(=O)N2 [Compound 5i, 4-(2-chloropyrido[3,2-d]pyrimidin-4-yl)-6-fluoro-7-methoxy-3,4-dihydroquinoxalin-2(1H)-one]",IC50,MDA-MB-453; [18],693 ± 102 nM
same,IC50,M14; [15],> 1000 nM
same,IC50,A375; [16],> 1000 nM
same,IC50,MDA-MB-231; [17],> 1000 nM
same,IC50,"MDA-MB-468; Homo sapiens, MDA-MB-468",940 ± 300 nM
same,logP,logP,2.23
same,IC50,RPMI-7951,> 1000 nM
"COc1ccc2c(c1)NC(=O)CN2c1nc(Cl)nc2ccoc12 [Compound 5j, 4-(2-chlorofuro[3,2-d]pyrimidin-4-yl)-7-methoxy-3,4-dihydroquinoxalin-2(1H)-one]",IC50,MDA-MB-453; [18],1.4 ± 0.3 nM
same,IC50,M14; [15],5.6 ± 1.2 nM
same,IC50,A375; [16],11.9 ± 3.2 nM
same,IC50,MDA-MB-231; [17],5.4 ± 0.6 nM
same,IC50,"MDA-MB-468; Homo sapiens, MDA-MB-468",6.4 ± 1.3 nM
same,logP,logP,1.6
same,IC50,RPMI-7951,14.8 ± 3.7 nM
"Cc1nc2c(c(N3CC(=O)Nc4cc(OC(F)(F)F)ccc43)n1)CCC2 [Compound 12o, 4-(2-methyl-6,7-dihydro-5H-cyclopenta[d]pyrimidin-4-yl)-7-(trifluoromethoxy)-3,4-dihydroquinoxalin-2(1H)-one]",IC50,Mia PaCa-2; [1],83.5 ± 12.8 nM
same,IC50,MDA-MB-453; [2],34.9 ± 6.4 nM
same,IC50,M14; [3],41.9 ± 5.6 nM
same,IC50,A375; [4],~43.1 nM
same,IC50,PANC-1; [6],42.4 ± 8.5 nM
same,IC50,MDA-MB-231; [7],75.8 ± 13.1 nM
"COc1ccc2c(c1)[nH]c(=O)c(=O)n2-c1nc(OC)nc2c1CCC2 [Compound 16, 6-methoxy-1-(2-methoxy-6,7-dihydro-5H-cyclopenta[d]pyrimidin-4-yl)quinoxaline-2,3(1H,4H)-dione]",IC50,Mia PaCa-2; [8],> 1250 nM
same,IC50,MDA-MB-453; [10],> 3000 nM
same,IC50,M14; [11],> 3000 nM
same,IC50,A375; [12],> 3000 nM
same,IC50,PANC-1; [9],> 1250 nM
same,IC50,MDA-MB-231; [13],> 3000 nM
"COc1ccc2c(c1)[nH]c(=O)n2-c1nc(SC)nc2c1CCC2 [Compound 18, 5-methoxy-1-(2-(methylthio)-6,7-dihydro-5H-cyclopenta[d]pyrimidin-4-yl)-1H-benzo[d]imidazol-2(3H)-one]",IC50,Mia PaCa-2; [8],> 1250 nM
same,IC50,MDA-MB-453; [2],2180 ± 861 nM
same,IC50,M14; [3],1110 ± 306 nM
same,IC50,A375; [4],1180 ± 339 nM
same,IC50,PANC-1; [9],> 1250 nM
same,IC50,MDA-MB-231; [7],1340 ± 409 nM
